Test results: publication PMC12040169 (PLOS Biology, 2025)

assay: in vitro; conditions: human, hela cells, % viability

SMILES | viability at 28.5 h, 10 µM [%]
COc1cccc(CN2CCOC3(CCN(C(=O)OCc4ccccc4)CC3)C2)c1 [CBK161098T] | 95.4
Cc1ccc(-c2nccnc2OCCOc2ccccc2)cc1C [CBK106865] | 90.8
Nn1c(SCC(=O)Nc2ccc3c(c2)oc2ccccc23)nnc1-c1ccc(Cl)cc1Cl [CBK265090] | 91.7
Clc1cc(-c2cnc3ccccc3n2)c(Cl)s1 [CBK006186] | 85.4
OC1(c2cccnc2F)CCN(Cc2ccc(F)c(F)c2)CC1 [CBK284370] | 90
O=C(O)COCCn1cc(-c2ccc(Cl)cc2)cn1 [CBK021914] | 84.5
Cc1ccc(C(C)CCN2CC3CCCN3C[C@H]2C)o1 (stereo partly shown) [CBK285467] | 101
COc1ccc(CCNC(=O)C2CCN(S(=O)(=O)c3ccccc3)CC2)cc1 [CBK264985] | 95
CC(C)(C)c1nnc(NC(=O)c2ccc(F)cc2)s1 [CBK086855] | 89
CCN(CC)CCNC1=Nc2ccccc2CCC1 [CBK263520] | 94.7
O=C1CC(c2ccc3c(c2)OCO3)c2ccc3ccccc3c2N1 (stereo not shown) [CBK087469] | 95.8
O=[N+]([O-])c1ccc2c(ccn2C2CC(O)C(CO)O2)c1 (stereo not shown) [CBK201163] | 95
CCC1CCCCN1S(=O)(=O)c1cccc2c(S(=O)(=O)N3CCCCC3CC)cccc12 (stereo not shown) [CBK262073] | 92.8
O=C(Cn1nc2n(c1=O)CCCCC2)NCc1ccccc1Cl [CBK304642] | 86.6
Cc1nc(C)c(C(=O)N2CCN(Cc3ccccc3)CC2)s1 [CBK200177] | 101
C[C@H]1[C@@H]2[C@H]3OC(=O)[C@@H](C)[C@@H]3CC[C@@]2(C)CC[C@@H]1NC(=O)c1ccccn1 [CBK289452] | 107
Cc1csc(NC(=O)CSc2ccc3nnc(-c4ccccc4)n3n2)n1 [CBK287517] | 105
CCN(Cc1cncn1C)C(CC1CCCCC1)c1ccccc1 (stereo not shown) [CBK066815T] | 122
COc1cc(-c2ccc(N)c3ccccc23)cc(OC)c1OC [CBK084332] | 83.5
O=C(CN1C(=O)C2C3c4ccccc4C(c4ccccc43)C2C1=O)OCC(=O)c1ccc(F)cc1 (stereo not shown) [CBK264861] | 106
COc1cc(/C=N/NC(=O)C2COc3ccccc3O2)cc([N+](=O)[O-])c1O (stereo not shown) [CBK261480] | 89.1

SMILES | viability at 28.5 h, 10 µM [%]
CN(c1cccc(C#N)c1)C1CCN(c2nc3c(cnn3C)c(=O)[nH]2)C1 (stereo not shown) [CBK305462] | 91.8
Cc1ccc(Sc2nccn3c(=O)[nH]nc23)c(C)c1 [CBK288055] | 101
Nc1ccccc1Sc1nccc(C(F)(F)F)n1 [CBK006263] | 94.5
O=C(O)c1ccccc1-c1nc(-c2ccccc2F)no1 [CBK268022] | 100
CC(C)(C)c1ccc(S(=O)(=O)N2CCCC[C@H]2COC(=O)CCC(=O)O)cc1 [CBK200063] | 117
CCN(CCC(C)c1ccccc1)CCN(C)C (stereo not shown) [CBK261914] | 94.6
CCNc1cncc(-c2cncc(OC)c2)n1 [CBK065366] | 91.9
CC(=O)Nc1ccc(NC(=O)C2C3CCC(C3)C2C(=O)O)cc1 (stereo not shown) [CBK263534] | 93.9
COc1ccc(N2CCN(c3nccnc3-c3ccc(C(C)=O)s3)CC2)cc1OC [CBK036968] | 109
COc1cccc(NC(=O)c2ccc(N(C)Cc3ccccc3)c([N+](=O)[O-])c2)c1 [CBK267827] | 95.1
COc1ccc(OC(C)C(=O)Nc2ccccc2-c2ccccc2)cc1 (stereo not shown) [CBK266661] | 94.2
CC1=NC(O)(C(F)(F)F)C(c2ccccc2)S1 (stereo not shown) [CBK009121] | 87.8
CN1N=C(N)c2cn([C@@H]3O[C@H](COP(=O)(O)O)[C@H](O)C3O)c3ncnc1c23 (stereo partly shown) [CBK201301] | 73.9
O=C(CC(C(=O)O)n1cccn1)c1ccc(Br)cc1 (stereo not shown) [CBK269541] | 90.8
O=C(NCCCc1ccccn1)c1ccnc2ccc(Cl)cc12 [CBK282618] | 92.4
CC(CNC(=O)C1CCCCC1C(=O)O)c1ccccc1 (stereo not shown) [CBK268028] | 97.1
Cn1c2c(c(=O)n(C)c1=O)[C@H]1[C@H](O)[C@H](O)C[C@H]1[C@@H](C(O)c1ccccc1)N2 (stereo partly shown) [CBK303236] | 92.8
COC(=O)c1sccc1NC(=O)Cn1nnc(-c2ccc(C)cc2)n1 [CBK267183] | 98.4
CN1CCN(CC(=O)Nc2sc3c(c2C(=O)NCc2ccccc2)CCCC3)CC1 [CBK268207] | 102
O=C(O)C1CCN(c2c(-c3ccccc3)c3cc(Cl)ccc3[nH]c2=O)CC1 [CBK287198] | 87.3
OC[C@H]1O[C@@H](n2cnc3c(Cl)ncnc32)C(O)[C@H]1O (stereo partly shown) [CBK201266] | 99.1

SMILES | viability at 28.5 h, 10 µM [%]
CCCS(=O)(=O)c1ccc2[nH]c(NC(=O)c3cnc(-c4ccccc4)c(-c4ccncc4)c3)nc2c1 [CBK037426] | 100
CC(NC(=O)C1CCN(CCOc2ccccc2)CC1)c1ccccc1 (stereo not shown) [CBK148610] | 91.5
N#Cc1ccccc1N1CCN(c2ccc(-c3ccccc3)cn2)CC1 [CBK037590] | 97.8
O=C(NC1Cc2ccccc2C1)c1cscn1 [CBK200363] | 93.5
O=S(=O)(c1c(Cl)cccc1Cl)n1ccc2c(N3CCNCC3)nccc21 [CBK059060C] | 91.4
CCCCNc1cc(N2CCN(C(=O)COC)CC2)nc(N)n1 [CBK304078] | 98.8
O=C(O)[C@H]1CN(C(=O)c2cccs2)C[C@@H]1c1ccccc1F [CBK283819] | 87.1
COc1ccc(S(=O)(=O)N2CCC(C(=O)NCc3cccnc3)CC2)cc1Cl [CBK267613] | 95.2
COc1ncc(-c2cnc3[nH]c(=O)n(CC4CCOCC4)c3n2)cn1 [CBK064898] | 98.1
CC(C)c1nc(NCc2nnc(C(C)C)n2C)nc(N(C)C)n1 [CBK306402] | 104
O=c1cc(CO)oc(CN2CCSCC2)c1O [CBK288404] | 89
Cc1ccc(-c2nnc(CNC(=O)Cc3ccccc3Cl)o2)s1 [CBK284648] | 85.2
CN1CCN(CCCOc2ccc(OCc3ccccc3)cc2)CC1 [CBK265077] | 98.2
Cc1cc(C)nc(N2CCC(C(=O)NCc3ccc(Cl)cc3)CC2)n1 [CBK136319] | 94.8
CC(C)CN1CCC[C@H]1c1nc(-c2ccc(-n3ccnc3)nc2)no1 [CBK288894] | 88.5
Cc1[nH]c2ccccc2c1CCNC(=O)N(Cc1cnn(C)c1)C1CC1 [CBK306661] | 89
Cc1csc2c(C3CCN(C(=O)c4cccnc4)CC3)nc(C)n12 [CBK285242] | 85.1
Nc1ncc(-c2cc(C(F)(F)F)cc(C(F)(F)F)c2)nc1NCCCO [CBK063546] | 105
O=C(COc1ccccc1Cl)NC(=S)Nc1cccc(C(=O)O)c1 [CBK265662] | 91.4
COc1ccc(C(=O)NCCCc2nc3ccccc3[nH]2)cc1OC [CBK270018] | 101
COc1cccc(Nc2cc(-c3ccc(N4CCOCC4)cc3)ncn2)c1OC [CBK037687] | 94.7

same assay, conditions: human, hela cells, % viability, bulk resorufin, single well

SMILES | viability at 28.5 h, 10 µM [%]
O=C(c1ccoc1)N1CCC2(CC1)OCc1ccccc1O2 [CBK061234] | 94.7
